Data published in the kinase profiling compilation of Christmann-Franck et al. (2016).

Legend:
Assay in all cases: KINOMEscan competition binding
Settings in all cases: compound 10.0 µM
AKT2 (human) = AKT2 (human) (UniProt P31751)
ANKK1 (human) = ANKK1 (human) (UniProt Q8NFD2)
AURKC (human) = AURKC (human) (UniProt Q9UQB9)
BLK (human) = BLK (human) (UniProt P51451)
CAMK1D (human) = CAMK1D (human) (UniProt Q8IU85)
CDC2L2 (human) = CDC2L2 (human) (UniProt Q9UQ88)
CHEK2 (human) = CHEK2 (human) (UniProt O96017)
CLK4 (human) = CLK4 (human) (UniProt Q9HAZ1)
CSF1R (human) = CSF1R (human) (UniProt P07333)
DYRK1B (human) = DYRK1B (human) (UniProt Q9Y463)
EIF2AK1 (human) = EIF2AK1 (human) (UniProt Q9BQI3)
EPHB4 (human) = EPHB4 (human) (UniProt P54760)
EPHB6 (human) = EPHB6 (human) (UniProt O15197)
ERBB2 (human) = ERBB2 (human) (UniProt P04626)
FGFR4 (human) = FGFR4 (human) (UniProt P22455)
HCK (human) = HCK (human) (UniProt P08631)
[1] = target: JAK3 JH1 catalytic (human) (UniProt P52333)
[2] = tested on: KIT (human), P10721 [V559D/V654A]
LRRK2 (human) = LRRK2 (human) (UniProt Q5S007)
LTK (human) = LTK (human) (UniProt P29376)
MAP2K2 (human) = MAP2K2 (human) (UniProt P36507)
MAP4K2 (human) = MAP4K2 (human) (UniProt Q12851)
MAPK10 (human) = MAPK10 (human) (UniProt P53779)
MAPK11 (human) = MAPK11 (human) (UniProt Q15759)
MAPK8 (human) = MAPK8 (human) (UniProt P45983)
NEK7 (human) = NEK7 (human) (UniProt Q8TDX7)
NIM1 (human) = NIM1 (human) (UniProt Q8IY84)
NTRK1 (human) = NTRK1 (human) (UniProt P04629)
NUAK2 (human) = NUAK2 (human) (UniProt Q9H093)
PIK3C2G (human) = PIK3C2G (human) (UniProt O75747)
PLK2 (human) = PLK2 (human) (UniProt Q9NYY3)
PRKD3 (human) = PRKD3 (human) (UniProt O94806)
RIPK4 (human) = RIPK4 (human) (UniProt P57078)
RPS6KA5 KD2 (human) = RPS6KA5 KD2 (human) (UniProt O75582)
STK10 (human) = STK10 (human) (UniProt O94804)
TEK (human) = TEK (human) (UniProt Q02763)
TESK1 (human) = TESK1 (human) (UniProt Q15569)
TIE1 (human) = TIE1 (human) (UniProt P35590)
ULK2 (human) = ULK2 (human) (UniProt Q8IYT8)
YES1 (human) = YES1 (human) (UniProt P07947)

Chain of EIF2AK1 (human) (Q9BQI3 whole entry, looked up): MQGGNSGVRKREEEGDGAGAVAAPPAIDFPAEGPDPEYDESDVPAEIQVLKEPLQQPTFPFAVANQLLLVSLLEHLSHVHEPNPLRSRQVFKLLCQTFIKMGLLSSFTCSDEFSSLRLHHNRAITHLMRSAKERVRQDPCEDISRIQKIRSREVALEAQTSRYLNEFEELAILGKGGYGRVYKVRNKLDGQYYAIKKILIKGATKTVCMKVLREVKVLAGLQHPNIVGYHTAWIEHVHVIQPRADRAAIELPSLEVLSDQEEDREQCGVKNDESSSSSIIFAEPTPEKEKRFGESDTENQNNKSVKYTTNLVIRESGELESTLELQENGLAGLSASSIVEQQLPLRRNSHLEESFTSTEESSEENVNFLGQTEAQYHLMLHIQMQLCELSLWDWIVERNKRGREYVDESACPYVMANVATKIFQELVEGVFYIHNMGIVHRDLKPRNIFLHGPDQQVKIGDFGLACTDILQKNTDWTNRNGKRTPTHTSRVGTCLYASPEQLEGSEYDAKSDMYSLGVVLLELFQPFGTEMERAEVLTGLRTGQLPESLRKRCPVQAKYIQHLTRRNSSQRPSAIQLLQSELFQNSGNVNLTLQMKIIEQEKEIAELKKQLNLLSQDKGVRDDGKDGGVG
Chain of EPHB4 (human) (P54760 whole entry, looked up): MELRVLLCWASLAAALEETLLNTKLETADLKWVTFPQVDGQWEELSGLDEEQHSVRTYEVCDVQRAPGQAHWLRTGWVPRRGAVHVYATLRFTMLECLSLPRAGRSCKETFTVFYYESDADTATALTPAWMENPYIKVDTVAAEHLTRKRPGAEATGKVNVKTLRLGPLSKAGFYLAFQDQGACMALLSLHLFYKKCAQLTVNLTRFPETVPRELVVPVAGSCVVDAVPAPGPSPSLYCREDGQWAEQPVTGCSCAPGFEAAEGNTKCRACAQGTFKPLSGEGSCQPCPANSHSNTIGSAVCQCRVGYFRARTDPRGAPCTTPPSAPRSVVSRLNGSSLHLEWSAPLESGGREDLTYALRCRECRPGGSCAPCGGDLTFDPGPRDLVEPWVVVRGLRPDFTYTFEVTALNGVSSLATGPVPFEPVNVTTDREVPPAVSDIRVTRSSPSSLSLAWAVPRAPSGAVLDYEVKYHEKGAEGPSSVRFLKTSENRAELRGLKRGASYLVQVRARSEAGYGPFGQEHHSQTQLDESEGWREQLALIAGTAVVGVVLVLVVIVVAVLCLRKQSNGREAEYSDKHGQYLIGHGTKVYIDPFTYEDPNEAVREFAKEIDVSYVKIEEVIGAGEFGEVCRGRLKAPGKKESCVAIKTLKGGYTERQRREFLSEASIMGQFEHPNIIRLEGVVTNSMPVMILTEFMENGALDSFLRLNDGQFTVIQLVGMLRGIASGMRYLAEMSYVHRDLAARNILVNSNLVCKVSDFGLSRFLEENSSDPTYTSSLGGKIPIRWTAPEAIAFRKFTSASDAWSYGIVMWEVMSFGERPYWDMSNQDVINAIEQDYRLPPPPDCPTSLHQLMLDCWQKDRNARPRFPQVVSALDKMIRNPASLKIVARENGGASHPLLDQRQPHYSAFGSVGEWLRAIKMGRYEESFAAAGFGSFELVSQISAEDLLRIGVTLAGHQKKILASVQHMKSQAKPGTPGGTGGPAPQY
Chain of EPHB6 (human) (O15197 whole entry, looked up): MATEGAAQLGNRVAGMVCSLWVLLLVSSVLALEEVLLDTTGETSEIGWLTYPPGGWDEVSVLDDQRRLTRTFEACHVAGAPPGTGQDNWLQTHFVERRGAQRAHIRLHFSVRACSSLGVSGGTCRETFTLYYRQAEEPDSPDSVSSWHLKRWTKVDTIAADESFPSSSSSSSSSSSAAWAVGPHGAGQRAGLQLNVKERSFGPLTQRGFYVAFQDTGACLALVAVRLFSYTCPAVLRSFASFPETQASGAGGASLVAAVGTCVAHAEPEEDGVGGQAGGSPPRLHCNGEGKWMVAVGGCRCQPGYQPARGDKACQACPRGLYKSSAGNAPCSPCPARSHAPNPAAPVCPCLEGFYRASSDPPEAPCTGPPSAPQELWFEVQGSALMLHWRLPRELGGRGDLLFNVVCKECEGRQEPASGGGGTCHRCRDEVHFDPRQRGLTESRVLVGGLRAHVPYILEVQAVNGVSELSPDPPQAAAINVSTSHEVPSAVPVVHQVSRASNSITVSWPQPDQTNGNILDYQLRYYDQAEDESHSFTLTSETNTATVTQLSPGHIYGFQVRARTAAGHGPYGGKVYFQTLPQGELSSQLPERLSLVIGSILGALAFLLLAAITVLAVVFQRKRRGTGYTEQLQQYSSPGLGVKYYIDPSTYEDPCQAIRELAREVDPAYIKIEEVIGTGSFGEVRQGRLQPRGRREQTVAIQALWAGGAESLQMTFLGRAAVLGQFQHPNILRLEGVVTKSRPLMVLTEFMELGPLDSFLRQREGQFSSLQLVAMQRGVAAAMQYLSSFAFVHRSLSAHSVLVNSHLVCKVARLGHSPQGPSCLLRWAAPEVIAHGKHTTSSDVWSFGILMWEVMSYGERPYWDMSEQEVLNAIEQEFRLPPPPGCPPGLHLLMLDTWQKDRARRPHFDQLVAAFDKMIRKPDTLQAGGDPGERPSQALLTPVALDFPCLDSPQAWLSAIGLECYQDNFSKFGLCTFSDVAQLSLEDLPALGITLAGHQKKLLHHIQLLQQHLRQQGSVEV
Chain of TEK (human) (Q02763 whole entry, looked up): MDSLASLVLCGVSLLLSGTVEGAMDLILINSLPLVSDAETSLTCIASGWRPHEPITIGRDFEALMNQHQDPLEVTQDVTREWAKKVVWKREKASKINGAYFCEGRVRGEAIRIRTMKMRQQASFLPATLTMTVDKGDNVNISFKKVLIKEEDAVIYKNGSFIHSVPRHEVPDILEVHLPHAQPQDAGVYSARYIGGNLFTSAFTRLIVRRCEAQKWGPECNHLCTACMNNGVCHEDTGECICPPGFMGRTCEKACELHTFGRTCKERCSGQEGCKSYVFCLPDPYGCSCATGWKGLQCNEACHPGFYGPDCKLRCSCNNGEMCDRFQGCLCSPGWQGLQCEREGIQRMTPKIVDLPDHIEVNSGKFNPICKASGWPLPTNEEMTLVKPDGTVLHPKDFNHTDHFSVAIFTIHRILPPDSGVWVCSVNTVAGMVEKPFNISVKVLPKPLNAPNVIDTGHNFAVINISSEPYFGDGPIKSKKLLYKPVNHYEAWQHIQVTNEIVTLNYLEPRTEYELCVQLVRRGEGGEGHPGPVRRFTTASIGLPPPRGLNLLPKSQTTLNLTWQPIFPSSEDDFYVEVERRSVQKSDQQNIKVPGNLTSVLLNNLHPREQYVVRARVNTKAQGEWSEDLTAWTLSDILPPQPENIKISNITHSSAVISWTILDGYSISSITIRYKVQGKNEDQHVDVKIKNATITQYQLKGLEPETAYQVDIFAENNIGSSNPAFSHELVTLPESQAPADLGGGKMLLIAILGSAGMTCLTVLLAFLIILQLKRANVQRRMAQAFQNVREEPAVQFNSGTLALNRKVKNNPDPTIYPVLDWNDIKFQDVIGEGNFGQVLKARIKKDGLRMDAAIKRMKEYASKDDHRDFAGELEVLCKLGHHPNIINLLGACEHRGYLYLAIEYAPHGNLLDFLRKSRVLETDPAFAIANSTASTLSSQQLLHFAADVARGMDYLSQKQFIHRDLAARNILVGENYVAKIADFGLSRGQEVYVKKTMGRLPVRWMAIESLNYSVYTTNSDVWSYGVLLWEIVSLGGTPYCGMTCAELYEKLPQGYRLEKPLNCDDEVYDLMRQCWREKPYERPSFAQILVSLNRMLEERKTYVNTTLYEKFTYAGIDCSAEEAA
Chain of DYRK1B (human) (Q9Y463 whole entry, looked up): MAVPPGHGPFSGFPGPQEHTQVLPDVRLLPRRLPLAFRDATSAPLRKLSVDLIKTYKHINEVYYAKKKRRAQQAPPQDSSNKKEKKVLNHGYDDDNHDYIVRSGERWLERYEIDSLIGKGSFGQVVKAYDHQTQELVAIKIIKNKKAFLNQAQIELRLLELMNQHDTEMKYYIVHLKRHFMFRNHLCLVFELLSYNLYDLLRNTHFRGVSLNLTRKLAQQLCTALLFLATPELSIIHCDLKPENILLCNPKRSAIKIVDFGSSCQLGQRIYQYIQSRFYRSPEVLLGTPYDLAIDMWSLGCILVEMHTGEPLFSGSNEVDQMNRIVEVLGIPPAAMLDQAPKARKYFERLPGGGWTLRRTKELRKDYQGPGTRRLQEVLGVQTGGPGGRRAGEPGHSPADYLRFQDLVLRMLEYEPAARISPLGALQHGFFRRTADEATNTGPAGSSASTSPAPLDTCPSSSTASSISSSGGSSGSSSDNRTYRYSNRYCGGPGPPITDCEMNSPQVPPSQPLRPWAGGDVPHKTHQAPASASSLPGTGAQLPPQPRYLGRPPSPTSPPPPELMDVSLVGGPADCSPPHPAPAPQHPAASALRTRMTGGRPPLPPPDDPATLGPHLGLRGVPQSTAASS
Chain of AURKC (human) (Q9UQB9 whole entry, looked up): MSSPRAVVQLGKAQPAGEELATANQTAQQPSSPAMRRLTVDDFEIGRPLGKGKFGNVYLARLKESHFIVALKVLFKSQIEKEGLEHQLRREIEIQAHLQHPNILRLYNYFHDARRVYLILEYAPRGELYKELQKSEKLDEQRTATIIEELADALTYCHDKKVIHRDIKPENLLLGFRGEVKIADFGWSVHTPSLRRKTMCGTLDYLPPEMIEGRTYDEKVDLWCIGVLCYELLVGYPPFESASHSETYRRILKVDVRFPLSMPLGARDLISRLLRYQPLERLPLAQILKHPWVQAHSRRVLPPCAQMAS
Chain of NEK7 (human) (Q8TDX7 whole entry, looked up): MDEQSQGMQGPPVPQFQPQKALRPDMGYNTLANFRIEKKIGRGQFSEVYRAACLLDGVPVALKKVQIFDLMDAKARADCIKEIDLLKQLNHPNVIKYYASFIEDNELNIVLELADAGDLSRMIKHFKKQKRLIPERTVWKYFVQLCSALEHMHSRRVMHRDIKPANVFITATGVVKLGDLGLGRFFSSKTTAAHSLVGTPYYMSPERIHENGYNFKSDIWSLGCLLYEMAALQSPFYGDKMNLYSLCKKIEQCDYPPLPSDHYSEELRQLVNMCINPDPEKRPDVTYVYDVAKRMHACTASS

SMILES	kinase still bound, per cent of control (AKT2 (human)) [%]	kinase still bound, per cent of control (ANKK1 (human)) [%]	kinase still bound, per cent of control (AURKC (human)) [%]	kinase still bound, per cent of control (BLK (human)) [%]	kinase still bound, per cent of control (CAMK1D (human)) [%]	kinase still bound, per cent of control (CDC2L2 (human)) [%]	kinase still bound, per cent of control (CHEK2 (human)) [%]	kinase still bound, per cent of control (CLK4 (human)) [%]	kinase still bound, per cent of control (CSF1R (human)) [%]	kinase still bound, per cent of control (DYRK1B (human)) [%]	kinase still bound, per cent of control (EIF2AK1 (human)) [%]	kinase still bound, per cent of control (EPHB4 (human)) [%]	kinase still bound, per cent of control (EPHB6 (human)) [%]	kinase still bound, per cent of control (ERBB2 (human)) [%]	kinase still bound, per cent of control (FGFR4 (human)) [%]	kinase still bound, per cent of control (HCK (human)) [%]	kinase still bound, per cent of control [1] [%]	kinase still bound, per cent of control [2] [%]	kinase still bound, per cent of control (LRRK2 (human)) [%]	kinase still bound, per cent of control (LTK (human)) [%]	also measured
C=CC(=O)Nc1cc(-n2c(=O)ccc3cnc4ccc(-c5cn[nH]c5)cc4c32)ccc1C	87	82	100	2.4	86	100	87	3	90	1.8	100	100	54	42	100	100	0	100	38	100	kinase still bound, per cent of control (MAP2K2 (human)): 83%; kinase still bound, per cent of control (MAP4K2 (human)): 9.4%; kinase still bound, per cent of control (MAPK10 (human)): 1.8%; kinase still bound, per cent of control (MAPK11 (human)): 89%; kinase still bound, per cent of control (MAPK8 (human)): 1.9%; kinase still bound, per cent of control (NEK7 (human)): 100%; kinase still bound, per cent of control (NIM1 (human)): 89%; kinase still bound, per cent of control (NTRK1 (human)): 65%; kinase still bound, per cent of control (NUAK2 (human)): 46%; kinase still bound, per cent of control (PIK3C2G (human)): 5.9%; kinase still bound, per cent of control (PLK2 (human)): 89%; kinase still bound, per cent of control (PRKD3 (human)): 98%; kinase still bound, per cent of control (RIPK4 (human)): 67%; kinase still bound, per cent of control (RPS6KA5 KD2 (human)): 75%; kinase still bound, per cent of control (STK10 (human)): 94%; kinase still bound, per cent of control (TEK (human)): 100%; kinase still bound, per cent of control (TESK1 (human)): 54%; kinase still bound, per cent of control (TIE1 (human)): 100%; kinase still bound, per cent of control (ULK2 (human)): 81%; kinase still bound, per cent of control (YES1 (human)): 94%
COc1ccc(N(C(=O)Oc2c(C)cccc2C)c2ccnc(Nc3ccc(N4CCN(C)CC4)cc3)n2)c(OC)c1	100	100	9.9	0.05	100	42	78	100	0.1	68	100	0	1.2	15	7.4	0.15	0.25	85	78	1.2	kinase still bound, per cent of control (MAP2K2 (human)): 46%; kinase still bound, per cent of control (MAP4K2 (human)): 1.6%; kinase still bound, per cent of control (MAPK10 (human)): 37%; kinase still bound, per cent of control (MAPK11 (human)): 11%; kinase still bound, per cent of control (MAPK8 (human)): 64%; kinase still bound, per cent of control (NEK7 (human)): 80%; kinase still bound, per cent of control (NIM1 (human)): 100%; kinase still bound, per cent of control (NTRK1 (human)): 78%; kinase still bound, per cent of control (NUAK2 (human)): 9.8%; kinase still bound, per cent of control (PIK3C2G (human)): 98%; kinase still bound, per cent of control (PLK2 (human)): 100%; kinase still bound, per cent of control (PRKD3 (human)): 11%; kinase still bound, per cent of control (RIPK4 (human)): 92%; kinase still bound, per cent of control (RPS6KA5 KD2 (human)): 93%; kinase still bound, per cent of control (STK10 (human)): 0%; kinase still bound, per cent of control (TEK (human)): 0.3%; kinase still bound, per cent of control (TESK1 (human)): 0%; kinase still bound, per cent of control (TIE1 (human)): 5.8%; kinase still bound, per cent of control (ULK2 (human)): 38%; kinase still bound, per cent of control (YES1 (human)): 0.05%
